According to patent publication US20220204439A1, “LIPIDS AND LIPID NANOPARTICLE FORMULATIONS FOR DELIVERY OF NUCLEIC ACIDS” (Acuitas Therapeutics, Inc., priority 2015, published 2022):

Legend:
[1] = pKa of formulated cationic lipids in lipid nanoparticles (TNS fluorescence assay); assay type: physicochemical; details: probe 2-(p-toluidino)-6-napthalene sulfonic acid (TNS), 1 µM final; formulated in LNP cationic lipid/DSPC/cholesterol/PEG-lipid 50/10/38.5/1.5 mol %; pH of half-maximal TNS fluorescence
Description: As described elsewhere, the pKa of formulated cationic lipids is correlated with the effectiveness of LNPs for delivery of nucleic acids (see Jayaraman et al, Angewandte Chemie, International Edition (2012), 51(34), 8529-8533; Semple et al, Nature Biotechnology 28, 172-176 (2010)). The preferred range of pKa is ˜5 to ˜7. […] Lipid nanoparticles comprising of cationic lipid/DSPC/cholesterol/PEG-lipid (50/10/38.5/1.5 mol %) in PBS at a concentration of 0.4 mM total lipid are prepared using the in-line process as described in Example 28. TNS was prepared as a 100 μM stock solution in distilled water. Vesicles were diluted to 24 μM lipid in 2 mL of buffered solutions containing, 10 mM HEPES, 10 mM MES, 10 mM ammonium acetate, 130 mM NaCl, where the pH ranged from 2.5 to 11. An aliquot of the TNS solution was added to give a final concentration of 1 μM and following vortex mixing fluorescence intensity was measured at room temperature in a SLM Aminco Series 2 Luminescence Spectrophotometer using excitation and emission wavelengths of 321 nm and 445 nm. A sigmoidal best fit analysis was applied to the fluorescence data and the pKa was measured as the pH giving rise to half-maximal fluorescence intensity (see FIG. 2).

[2] = system: luciferase expression in the liver; assay: In vivo luciferase mRNA expression in mouse liver with lipid nanoparticle formulations; set-up: species or system C57BL/6 mice; details: tail vein injection, liver 4 hours after administration, FLuc mRNA; for Liver Luc @ 0.3 mg/kg (ng luc/g liver) / Liver Luc @ 1.0 mg/kg (ng luc/g liver): LNP 50% cationic lipid/10% DSPC/38.5% cholesterol/1.5% PEG-DMA
Description: (§1) Cationic lipid (MC3), DSPC, cholesterol and PEG-lipid were solubilized in ethanol at a molar ratio of 50:10:38.5:1.5. Lipid nanoparticles (LNP) were prepared at a total lipid to mRNA weight ratio of approximately 10:1 to 30:1. Briefly, the mRNA was diluted to 0.2 mg/mL in 10 to 50 mM citrate buffer, pH 4. Syringe pumps were used to mix the ethanolic lipid solution with the mRNA aqueous solution at a ratio of about 1:5 to 1:3 (vol/vol) with total flow rates above 15 ml/min. The ethanol was then removed and the external buffer replaced with PBS by dialysis. Finally, the lipid nanoparticles were filtered through a 0.2 μm pore sterile filter. Lipid nanoparticle particle size was 70-90 nm diameter as determined by quasi-elastic light scattering using a Nicomp 370 submicron particle sizer (Santa Barbara, Calif.).
Studies were performed in 6-8 week old female C57BL/6 mice (Charles River) according to guidelines established by an institutional animal care committee (ACC) and the Canadian Council on Animal Care (CCAC). Varying doses of mRNA-lipid nanoparticle were systemically administered by tail vein injection and animals euthanized at specific time points (1, 2, 4, 8 and 24 hrs) post-administration. Liver and spleen were collected in pre-weighted tubes, weights determined, immediately snap frozen in liquid nitrogen and stored at −80° C. until processing for analysis.
For liver, approximately 50 mg was dissected for analyses in a 2 mL FastPrep tubes (MP Biomedicals, Solon Ohio). ¼″ ceramic sphere (MP Biomedicals) was added to each tube and 500 μL of Glo Lysis Buffer—GLB (Promega, Madison Wis.) equilibrated to room temperature was added to liver tissue. Liver tissues were homogenized with the FastPrep24 instrument (MP Biomedicals) at 2×6.0 m/s for 15 seconds. Homogenate was incubated at room temperature for 5 minutes prior to a 1:4 dilution in GLB and assessed using SteadyGlo Luciferase assay system (Promega). Specifically, 50 μL of diluted tissue homogenate was reacted with 50 μL of SteadyGlo substrate, shaken for 10 seconds followed by 5 minute incubation and then quantitated using a CentroXS^3 LB 960 luminometer (Berthold Technologies, Germany). The amount of protein assayed was determined by using the BCA protein assay kit (Pierce, Rockford Ill.). Relative luminescence units (RLU) were then normalized to total ug protein assayed. To convert RLU to ng luciferase a standard curve was generated with QuantiLum Recombinant Luciferase (Promega). Based in the data provided in FIG. 1, the four-hour time point was chosen for efficacy evaluation of the lipid formulations (see Example 29).
The FLuc mRNA (L-6107) from Trilink Biotechnologies will express a luciferase protein, originally isolated from the firefly, Photinus pyralis. FLuc is commonly used in mammalian cell culture to measure both gene expression and cell viability. It emits bioluminescence in the presence of the substrate, luciferin. This capped and polyadenylated mRNA is fully substituted with 5-methylcytidine and pseudouridine.
The cationic lipids shown in Table 2 have previously been tested with nucleic acids. For comparative purposes, these lipids were also used to formulate lipid nanoparticles containing the FLuc mRNA (L-6107) using an in line mixing method, as described in example 28 and in PCT/US10/22614, which is hereby incorporated by reference in its entirety. […] Relative activity was determined by measuring luciferase expression in the liver 4 hours following administration via tail vein injection as described in example 28. The activity was compared at a dose of 0.3 and 1.0 mg mRNA/kg and expressed as ng luciferase/g liver measured 4 hours after administration, as described in Example 28. […]

[3] = Lipid nanoparticle particle size by quasi-elastic light scattering; assay type: physicochemical; details: MC3/DSPC/cholesterol/PEG-lipid 50:10:38.5:1.5 LNP with mRNA, Nicomp 370
Description: as §1

Structure (SMILES) | pKa [1] | Liver Luc @ 0.3 mg/kg (ng luc/g liver) ([2]; 0.3 mg mRNA/kg) | Liver Luc @ 1.0 mg/kg (ng luc/g liver) ([2]; 1.0 mg mRNA/kg) | Lipid nanoparticle particle size (diameter) [3] | Liver Luc @ 0.3 mg/kg dose ([2]; 0.3 mg mRNA/kg, LNP 50% cationic lipid/10% DSPC/38.5% cholesterol/1.5% PEG-DMG) [ng luciferase/g liver] | Liver Luc @ 1.0 mg/kg dose ([2]; 1.0 mg mRNA/kg, LNP 50% cationic lipid/10% DSPC/38.5% cholesterol/1.5% PEG-DMG) [ng luciferase/g liver]
CCCCCCC(CCCC)COC(=O)CCCCCCCCC(CCCCCCCCC(=O)OCC(CCCC)CCCCCC)N(CCCN(C)C)C(=O)C(CC)CCCCC (centres unmarked) [Compound 35] | 5.97 | 1083 ± 350 | 8554 ± 4587 | – | – | –
CCCCC/C=C\C/C=C\CCCCCCCCC(CCCCCCCC/C=C\C/C=C\CCCCC)OC(=O)CCCN(C)C [MC3, reference compound] | – | 603 ± 150 | 2876 ± 622 | 70-90 nm | 198 ± 126 | 757 ± 528
CCCCCCCCC(=O)N(CCCN(C)C)C(CCCCCCCCC(=O)OC(CCCCCC)CCCCCC)CCCCCCCCC(=O)OC(CCCCCC)CCCCCC [Compound 11] | 6.13 | 2273 ± 294 | 16502 ± 4301 | – | – | –
CCCCC/C=C\C/C=C\CCCCCCCCC(CCCCCCCC/C=C\C/C=C\CCCCC)N(CCCN(C)C)C(=O)CCCCCCCC [Compound 5] | 6.27 | 603 ± 167 | 3640 ± 601 | – | – | –
CCCCCCCCC(CCCCCC)COC(=O)CCCCCCCCC(CCCCCCCCC(=O)OCC(CCCCCC)CCCCCCCC)N(CCCN(C)C)C(=O)CCCCCCC (centres unmarked) [Compound 12] | 6.21 | 3336 ± 1394 | 13577 ± 1948 | – | – | –
CCCCCCCC(=O)N(CCCN(C)C)C(CCCCCCCCC(=O)OC(CCCCCC)CCCCCC)CCCCCCCCC(=O)OC(CCCCCC)CCCCCC [Compound 10] | 6.16 | 2379 ± 93 | 26181 ± 2900 | – | – | –
CCCCCCCCC(=O)N(CCCN(C)C)C(CCCCCCCCC(=O)OCC(CCCC)CCCCCC)CCCCCCCCC(=O)OCC(CCCC)CCCCCC (centres unmarked) [Compound 9] | 6.27 | 2381 ± 1162 | 17157 ± 2470 | – | – | –
CCCCC/C=C\C/C=C\CCCCCCCCC(CCCCCCCC/C=C\C/C=C\CCCCC)C(=O)N(CCCCCCCCC)CCCN(C)C [Compound 16] | 6.37 | 231 ± 100 | 1185 ± 838 | – | – | –
CCCCC/C=C\C/C=C\CCCCCCCCC(CCCCCCCC/C=C\C/C=C\CCCCC)N(CC)CCCN(C)C [C, reference compound] | 6.36 | 24 ± 4 | 77 ± 19 | – | – | –
